Assay results published in ChEMBL document CHEMBL6109139, “Rational Design of the First Dual Agonist at Trace Amine-Associated Receptor 1 and 5-HT2C Receptors Based on Binding Pocket Similarity for the Treatment of Schizophrenia and Alzheimer's Disease-Related Psychosis” (J Med Chem, 2025).

Experiments:
[1] = molecular target: T1, Trace amine-associated receptor 1 (Homo sapiens, UniProt Q96RJ0); experiment: Agonist activity at human TAAR1 extracted from CHO-K1 cell membrane coexpressing AGTRL1/Gi by cAMP assay; format: functional, cell membranes
T1 sequence (Q96RJ0 whole entry): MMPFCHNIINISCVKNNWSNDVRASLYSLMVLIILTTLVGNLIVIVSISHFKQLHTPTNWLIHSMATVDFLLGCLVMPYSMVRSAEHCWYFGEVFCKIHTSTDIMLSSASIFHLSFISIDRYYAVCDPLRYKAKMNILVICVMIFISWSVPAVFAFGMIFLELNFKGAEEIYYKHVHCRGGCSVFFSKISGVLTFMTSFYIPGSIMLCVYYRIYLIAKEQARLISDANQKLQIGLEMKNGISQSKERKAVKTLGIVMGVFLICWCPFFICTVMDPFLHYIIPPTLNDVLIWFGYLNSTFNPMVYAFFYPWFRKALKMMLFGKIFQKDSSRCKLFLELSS

[2] = molecular target: T2, Trace amine-associated receptor 1 (Homo sapiens) (UniProt Q96RJ0); experiment: Agonist activity at human TAAR1 extracted from CHO-K1 cell membrane coexpressing AGTRL1/Gi by measuring maximum efficacy at 0 to 100 uM by cAMP assay relative to control; format: functional, cell membranes; conditions: dose 0-100 µM
T2 sequence (whole entry): T1 sequence (Q96RJ0 whole entry)

[3] = molecular target: T3, 5-hydroxytryptamine receptor 2C (Homo sapiens, UniProt P28335); experiment: Agonist activity at recombinant human 5-HT2CR expressed in HEK293 cells incubated for 2 hrs by FLIPR calcium assay; format: functional, cell-based
T3 sequence (P28335 whole entry): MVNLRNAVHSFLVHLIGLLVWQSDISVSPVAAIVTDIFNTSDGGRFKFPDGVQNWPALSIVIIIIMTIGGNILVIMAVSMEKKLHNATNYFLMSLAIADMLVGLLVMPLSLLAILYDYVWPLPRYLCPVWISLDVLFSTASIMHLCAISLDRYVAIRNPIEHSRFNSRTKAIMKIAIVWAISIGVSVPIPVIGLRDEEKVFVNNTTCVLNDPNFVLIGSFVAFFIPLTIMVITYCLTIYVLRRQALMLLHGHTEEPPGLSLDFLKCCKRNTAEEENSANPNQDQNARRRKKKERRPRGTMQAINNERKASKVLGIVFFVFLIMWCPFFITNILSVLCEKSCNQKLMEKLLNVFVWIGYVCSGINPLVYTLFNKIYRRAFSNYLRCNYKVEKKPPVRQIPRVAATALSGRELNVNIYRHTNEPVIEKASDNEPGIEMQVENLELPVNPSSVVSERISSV

[4] = molecular target: T4, 5-hydroxytryptamine receptor 2C (Homo sapiens) (UniProt P28335); experiment: Agonist activity at recombinant human 5-HT2CR expressed in HEK293 cells incubated for 2 hrs by measuring maximum efficacy by FLIPR calcium assay relative to control; format: functional, cell-based
T4 sequence (whole entry): T3 sequence (P28335 whole entry)

Mus musculus [5] = species: Mus musculus; experiment: Antipsychotic activity against MK-801 induced hyperlocomotion in male C57BL/6J mouse model assessed as effective dose; format: functional
[6] = molecular target: 5-hydroxytryptamine receptor 2C (Rattus norvegicus) (UniProt P08909); experiment: Agonist activity at rat 5-HT2CR by measuring maximum efficacy relative to control; format: functional; conditions: filed as agonist
5-hydroxytryptamine receptor 2C (Rattus norvegicus), sequence (P08909 whole entry): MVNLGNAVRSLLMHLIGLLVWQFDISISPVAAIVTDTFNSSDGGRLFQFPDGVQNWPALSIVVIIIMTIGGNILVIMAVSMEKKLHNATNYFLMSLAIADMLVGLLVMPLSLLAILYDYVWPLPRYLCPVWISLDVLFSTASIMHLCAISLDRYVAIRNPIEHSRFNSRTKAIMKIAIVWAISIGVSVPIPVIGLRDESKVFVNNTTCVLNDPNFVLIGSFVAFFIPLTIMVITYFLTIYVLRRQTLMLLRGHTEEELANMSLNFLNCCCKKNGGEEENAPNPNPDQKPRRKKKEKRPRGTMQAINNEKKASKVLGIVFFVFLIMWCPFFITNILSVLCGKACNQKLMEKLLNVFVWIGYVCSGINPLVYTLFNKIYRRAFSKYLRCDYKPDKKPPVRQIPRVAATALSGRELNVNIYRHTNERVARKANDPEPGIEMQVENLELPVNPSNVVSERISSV

[7] = molecular target: T4, 5-hydroxytryptamine receptor 2C (Homo sapiens); experiment: Partial agonist activity at recombinant human 5-HT2CR expressed in HEK293 cells incubated for 2 hrs by measuring maximum efficacy by FLIPR calcium assay relative to control; format: functional, cell-based; conditions: filed as partial agonist
Mus musculus [8] = experiment: Antipsychotic activity against MK-801 induced hypermobilization in male C57BL/6J mouse model assessed as reduction in hypermobilization state at 3 mg/kg, IG pretreated with compound followed by MK-801 addition and measured after 30 mins by open field test; format: functional, organism-based
[9] = molecular target: Trace amine-associated receptor 1 (Mus musculus) (UniProt Q923Y8); experiment: Agonist activity at mouse TAAR1 by measuring maximum efficacy relative to control; format: functional; conditions: filed as agonist
Trace amine-associated receptor 1 (Mus musculus), sequence (Q923Y8 whole entry): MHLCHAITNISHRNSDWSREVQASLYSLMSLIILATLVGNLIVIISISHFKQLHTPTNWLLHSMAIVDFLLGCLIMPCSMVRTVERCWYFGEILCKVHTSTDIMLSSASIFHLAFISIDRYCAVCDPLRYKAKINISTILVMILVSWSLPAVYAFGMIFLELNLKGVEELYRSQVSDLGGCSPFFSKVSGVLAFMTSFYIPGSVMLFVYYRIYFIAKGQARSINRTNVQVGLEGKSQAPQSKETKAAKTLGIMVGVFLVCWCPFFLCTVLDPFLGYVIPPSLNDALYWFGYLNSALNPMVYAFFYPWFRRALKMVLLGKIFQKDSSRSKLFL

[10] = molecular target: Trace amine-associated receptor 1 (Rattus norvegicus) (UniProt Q923Y9); experiment: Agonist activity at rat TAAR1 by measuring maximum efficacy relative to control; format: functional; conditions: filed as agonist
Trace amine-associated receptor 1 (Rattus norvegicus), sequence (Q923Y9 whole entry): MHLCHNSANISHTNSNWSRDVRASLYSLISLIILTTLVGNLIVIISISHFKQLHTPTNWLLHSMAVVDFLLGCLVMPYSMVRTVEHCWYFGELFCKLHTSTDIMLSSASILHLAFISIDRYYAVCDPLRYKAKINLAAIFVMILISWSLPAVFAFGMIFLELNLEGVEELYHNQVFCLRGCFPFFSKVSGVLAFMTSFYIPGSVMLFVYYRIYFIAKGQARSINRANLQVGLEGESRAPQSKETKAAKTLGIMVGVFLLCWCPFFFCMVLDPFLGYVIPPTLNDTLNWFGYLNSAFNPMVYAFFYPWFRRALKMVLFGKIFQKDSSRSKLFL

[11] = molecular target: Trace amine-associated receptor 1 (Rattus norvegicus, UniProt Q923Y9); experiment: Agonist activity at rat TAAR1; format: functional
Trace amine-associated receptor 1 (Rattus norvegicus, UniProt Q923Y9), sequence (Q923Y9 whole entry): as above

[12] = molecular target: Trace amine-associated receptor 1 (Mus musculus, UniProt Q923Y8); experiment: Agonist activity at mouse TAAR1; format: functional
Trace amine-associated receptor 1 (Mus musculus, UniProt Q923Y8), sequence (Q923Y8 whole entry): as the sequence (Q923Y8 whole entry) above

| Structure (SMILES) | EC50 [1] [µM] | Emax ([2]; filed as agonist) [%] | also measured |
| --- | --- | --- | --- |
| CC(C)Oc1ccsc1C1CNCCO1 (racemic) | > 100 | – | Emax [2]: 18.1% |
| FC(F)(F)COc1ccsc1C1CNCCO1 (racemic) | – | 97.7 | – |
| CC(=O)c1ccsc1C1CNCCO1 (stereo in doubt; 36b) [listing 1 of 2 here] | 15.2 | – | – |
| Fc1ccsc1C1CNCCO1 (racemic) | 0.252 | 100 | – |
| c1csc([C@@H]2CNCCO2)c1 | – | 80.1 | EC50 [3]: 3.49 µM; Emax ([4]; filed as agonist): 101% |
| c1ccc2c(c1)CCN1CCNCC21 (racemic) [AZAQUINZOLE] | 41.7 | – | Emax [2]: 37.2% |
| c1cc2c(s1)CCN1CCNCC21 (stereo in doubt; 23b) [listing 1 of 2 here] | 1.03 | – | – |
| CCCCCN1CCc2ccsc2C1CN (stereo in doubt; 20a) [listing 1 of 2 here] | > 30 | – | – |
| c1csc(C2CNCO2)c1 (racemic) | 6.4 | 97 | – |
| c1cc2c(o1)C1CNCCN1CC2 (stereo in doubt; 22a) [listing 1 of 2 here] | – | 95.6 | – |
| CN1CCc2ccsc2C1CN (stereo in doubt; 18a) [listing 1 of 2 here] | – | – | Emax [2]: 18.9% |
| CNCC1SCCc2ccsc21 (stereo in doubt; 16a) [listing 1 of 2 here] | – | – | Emax [2]: 37.4% |
| CNCC1SCCc2ccsc21 (stereo in doubt; 16b) [listing 1 of 2 here] | – | 74.6 | – |
| COc1ccccc1C1CNCCO1 (racemic) | 1.39 | 79 | – |
| CNCC1OCC(C)(C)c2ccsc21 (racemic) | 24.1 | 53.3 | – |
| CNCC1SCCc2ccsc21 (stereo in doubt; 16b) [listing 2 of 2 here] | 0.522 | – | – |
| CN1CCc2ccsc2C1CN (stereo in doubt; 18b) | – | 96.5 | – |
| COc1ccc(C2CNCCO2)s1 (stereo in doubt; 27b) [listing 1 of 2 here] | – | 96.9 | – |
| COc1csc(C2CNCCO2)c1 (stereo in doubt; 26a) [listing 1 of 2 here] | 23.6 | – | – |
| CCCN1CCc2ccsc2C1CN (stereo in doubt; 19b) [listing 1 of 2 here] | – | – | Emax [2]: 34.3% |
| CCCCCN1CCc2ccsc2C1CN (stereo in doubt; 20a) [listing 2 of 2 here] | – | – | Emax [2]: 0% |
| CCc1[nH]nc(C(=O)Nc2ccc([C@H]3CNCCO3)cc2)c1C [RALMITARONT] | – | 66 | EC50 [3]: > 100 µM; Emax [4]: 0.13%; ED50 (Mus musculus [5]): < 400 mg/kg |

| Structure (SMILES) | EC50 [1] [µM] | Emax ([2]; filed as agonist) [%] | also measured |
| --- | --- | --- | --- |
| CC(=O)c1ccsc1C1CNCCO1 (stereo in doubt; 36b) [listing 2 of 2 here] | – | 41.7 | – |
| CC(=O)c1ccsc1C1CNCCO1 (stereo in doubt; 36a) [listing 1 of 2 here] | – | – | Emax [2]: 2.04% |
| FCCOc1ccsc1C1CNCCO1 (racemic) | – | 46.7 | – |
| c1cc2c(o1)C1CNCCN1CC2 (stereo in doubt; 22b) [listing 1 of 2 here] | – | 94.3 | – |
| Fc1ccc(C2CNCCO2)s1 (racemic) | – | 80.8 | – |
| CNCC1NCCc2ccsc21 (stereo in doubt; 17b) [listing 1 of 2 here] | – | 61.2 | – |
| Fc1csc(C2CNCCO2)c1 (racemic) | – | 107 | – |
| CCCN1CCc2ccsc2C1CN (stereo in doubt; 19a) [listing 1 of 2 here] | 7.97 | – | – |
| CNCC1NCCc2ccsc21 (stereo in doubt; 17a) [listing 1 of 2 here] | – | – | Emax [2]: 33.8% |
| NCCc1c[nH]c2ccc(O)cc12 | – | – | Emax [6]: 102% |
| CNCC1OC(COC)Cc2ccsc21 (racemic) | 38 | 64 | – |
| CNCC1OCCc2ccoc21 (racemic) | – | 105 | – |
| COc1csc(C2CNCCO2)c1 (stereo in doubt; 26a) [listing 2 of 2 here] | – | 63.8 | – |
| CNCC1NCCc2ccsc21 (stereo in doubt; 17b) [listing 2 of 2 here] | 7.96 | – | – |
| c1cc2c(o1)C1CNCCN1CC2 (stereo in doubt; 22a) [listing 2 of 2 here] | 0.036 | – | – |
| CNCC1OC(C)(C)Cc2ccsc21 (racemic) | – | 99.6 | – |
| OCC1OCCc2ccsc21 (stereo in doubt; 15a) [listing 1 of 2 here] | – | – | Emax [2]: 1.94% |
| COc1csc(C2CNCCO2)c1 (stereo in doubt; 26b) [listing 1 of 2 here] | – | 85.6 | – |
| c1ccc2sc(C3CNCCO3)cc2c1 (racemic) | 4.35 | 72.1 | – |
| OCC1OCCc2ccsc21 (stereo in doubt; 15b) | – | – | Emax [2]: 2.72% |
| c1cc(C2CC2)c(C2CNCCO2)s1 (racemic) | – | 98.6 | – |
| CNCC1SCCc2ccsc21 (stereo in doubt; 16a) [listing 2 of 2 here] | 20.7 | – | – |

| Structure (SMILES) | EC50 [1] [µM] | Emax ([2]; filed as agonist) [%] | also measured |
| --- | --- | --- | --- |
| c1cc2c(o1)C1CNCCN1CC2 (stereo in doubt; 22b) [listing 2 of 2 here] | 0.776 | – | – |
| c1cc2c(s1)CCN1CCNCC21 (stereo in doubt; 23a) [listing 1 of 2 here] | 14.2 | – | – |
| CCCN1CCc2ccsc2C1CN (stereo in doubt; 19a) [listing 2 of 2 here] | – | – | Emax [2]: 35.7% |
| CC(=O)c1ccsc1C1CNCCO1 (stereo in doubt; 36a) [listing 2 of 2 here] | > 100 | – | – |
| c1cc2c(s1)CCN1CCNCC21 (stereo in doubt; 23a) [listing 2 of 2 here] | – | 51 | – |
| CN1CCc2ccsc2C1CN (stereo in doubt; 18a) [listing 2 of 2 here] | > 100 | – | – |
| OCC1OCCc2ccsc21 (stereo in doubt; 15a) [listing 2 of 2 here] | > 100 | – | – |
| CCCN1CCc2ccsc2C1CN (stereo in doubt; 19b) [listing 2 of 2 here] | 6.93 | – | – |
| CNCC1NCCc2ccsc21 (stereo in doubt; 17a) [listing 2 of 2 here] | 42.1 | – | – |
| c1cc2c(s1)CCN1CCNCC21 (stereo in doubt; 23b) [listing 2 of 2 here] | – | 77 | – |
| COc1ccc(C2CNCCO2)s1 (stereo in doubt; 27a) [listing 1 of 2 here] | 37.5 | – | – |
| COc1ccc(C2CNCCO2)s1 (stereo in doubt; 27a) [listing 2 of 2 here] | – | 69 | – |
| COc1csc(C2CNCCO2)c1 (stereo in doubt; 26b) [listing 2 of 2 here] | 2.16 | – | – |
| CC1(c2cccs2)CNCCO1 (racemic) | 20.7 | 92.6 | – |
| CCCCCN1CCc2ccsc2C1CN (stereo in doubt; 20b) | – | – | Emax [2]: 15.6% |
| COc1ccsc1C1CNCCO1 (stereo in doubt; 25a) | – | 94.1 | Emax [7]: 68.3%; Activity (Mus musculus [8]): Active; Similar Effect Compared To Ulotaront |
| FC(F)COc1ccsc1C1CNCCO1 (racemic) | 32.4 | 75.2 | – |
| COc1ccc(C2CNCCO2)s1 (stereo in doubt; 27b) [listing 2 of 2 here] | 1.59 | – | – |
| NCCc1ccc(O)cc1 [TYRAMINE] | 0.93 | 103 | Emax [9]: 103%; Emax [10]: 99%; EC50 [11]: 0.228 µM; EC50 [12]: 0.85 µM |
| COc1ccsc1C1CNCCO1 (stereo in doubt; 25b) | – | 76.4 | – |
